In publication PMC10733463, “Berberine-microbiota interplay: orchestrating gut health through modulation of the gut microbiota and metabolic transformation into bioactive metabolites” (Frontiers in Pharmacology, 2023):

Tests used:
T84 cells = experiment: Cell viability assay (neutral red uptake), T84; format: cell-based, human; conditions: 0.1 µg berberine/mL medium
Procedure: (§1) Caco-2 cells (human intestinal epithelial cells) were cultured in MEM (Gibco, Paisley, United Kingdom) supplemented with 10% Fetal Bovine Serum (FBS), 1% L-glutamine (Gibco), 1% MEM NEAA (Gibco) and 1% penicillin/streptomycin (P/S) (Gibco). T84 cells (human intestinal epithelial cells) were cultured in 1:1 DMEM/F12 (Gibco) supplemented with 10% FBS, 1% L-glutamine and 1% P/S (37°C, 5% CO2). The neutral red uptake assay was employed to evaluate the potential cytotoxicity of berberine ([Repetto et al., 2008]). Briefly, Caco-2 and T84 were seeded at 2 × 10^5 cells/well and 5 × 10^4 cells/well respectively in 96-well plates (Greiner Bio-one, Frickenhausen, Germany) and cultivated for 24 h in antibiotic-free medium (treatment medium) for attachment. […] A 10-fold dilution of sodium dodecyl sulfate (Sigma-Aldrich), ranging from 10 mg/mL to 10^−6 mg/mL was used a positive control. Cells were washed with 200 µL pre-warmed HBSS(+) (Gibco) and then treated with 150 µL of Neutral Red medium, consisting of 1:80 Neutral Red solution 0.33% (Sigma-Aldrich)/treatment medium for 3 h. Cells were washed in 200 µL HBSS(+) and treated with 100 µL of Neutral Red Desorb solution, consisting of 1% glacial acetic acid (Merck, Darmstadt, Germany), 50% ethanol (95%, Chem-Lab, Zedelgem, Belgium) and 49% deionized water.

colonic microbiota = experiment: 16S rRNA gene sequencing, microbiota composition in the colon; format: in vivo, Ross 308 broiler chickens
Caco-2 cells = experiment: Cell viability assay (neutral red uptake), Caco-2; format: cell-based, human; conditions: 0.1 µg berberine/mL medium
Procedure: as §1

jejunal microbiota = experiment: 16S rRNA gene sequencing, microbiota composition in the jejunum; format: in vivo, Ross 308 broiler chickens
[1] = 0.1 g berberine/kg feed vs normal diet, 21 days, LinDA-normalized abundance
[2] = 0.1 g berberine/kg feed, 21 days
[3] = 0.5 g berberine/kg feed vs normal diet, 21 days, LinDA-normalized abundance
[4] = 0.5 g berberine/kg feed, 21 days
[5] = 1 g berberine/kg feed vs normal diet, 21 days, LinDA-normalized abundance

For `COc1ccc2cc3[n+](cc2c1OC)CCc1cc2c(cc1-3)OCO2` [Berberine, Berberine chloride], the “Cytotoxicity (Neutral Red Uptake)” value (T84 cells) was “considered safe”, the “L2 FC Family_ Peptostreptococcaceae, 0.1 vs 0” value (colonic microbiota; [1]) was -1.21 and the “L2 FC GCA-900066575, 0.1 vs 0” value (colonic microbiota; [1]) was 3.13. For the same molecule, the “L2 FC Lachnospiraceae UCG-010, 0.1 vs 0” value (colonic microbiota; [1]) was 2.34, the “L2 FC Romboutsia, 0.1 vs 0” value (colonic microbiota; [1]) was -0.31 and the “L2 FC Ruminococcaceae UCG-014, 0.1 vs 0” value (colonic microbiota; [1]) was 5.39. For the same molecule, the “L2 FC uncultured genus of Peptostreptococcaceae, 0.1 vs 0” value (colonic microbiota; [1]) was -1.31, the “Mean relative abundance (%) Family_ Peptostreptococcaceae” value (colonic microbiota; [2]) was 0.11% and the “Mean relative abundance (%) GCA-900066575” value (colonic microbiota; [2]) was 0.59%. For the same molecule, the “Mean relative abundance (%) Lachnospiraceae UCG-010” value (colonic microbiota; [2]) was 0.06%, the “Mean relative abundance (%) Romboutsia” value (colonic microbiota; [2]) was 0.14% and the “Mean relative abundance (%) Ruminococcaceae UCG-014” value (colonic microbiota; [2]) was 3.36%. For the same molecule, the “Mean relative abundance (%) uncultured genus of Peptostreptococcaceae” value (colonic microbiota; [2]) was 13.82%, the “Mean relative abundance of Peptostreptococcaceae” value (colonic microbiota; [2]) was 14.07% and the “L2FC of LinDA-normalized abundance of Peptostreptococcaceae” value (colonic microbiota; 0.1 vs 0 g berberine/kg feed) was -0.79. For the same molecule, the “L2 FC Family_ Peptostreptococcaceae, 0.5 vs 0” value (colonic microbiota; [3]) was -2.31, the “L2 FC GCA-900066575, 0.5 vs 0” value (colonic microbiota; [3]) was 1.10 and the “L2 FC Lachnospiraceae UCG-010, 0.5 vs 0” value (colonic microbiota; [3]) was 0.64. The “L2 FC Romboutsia, 0.5 vs 0” value (colonic microbiota; [3]) was -1.42, the “L2 FC Ruminococcaceae UCG-014, 0.5 vs 0” value (colonic microbiota; [3]) was 2.59 and the “L2 FC uncultured genus of Peptostreptococcaceae, 0.5 vs 0” value (colonic microbiota; [3]) was -1.92. For the same molecule, the “Mean relative abundance (%) Family_ Peptostreptococcaceae” value (colonic microbiota; [4]) was 0.13%, the “Mean relative abundance (%) GCA-900066575” value (colonic microbiota; [4]) was 0.53% and the “Mean relative abundance (%) Lachnospiraceae UCG-010” value (colonic microbiota; [4]) was 0.03%. The “Mean relative abundance (%) Romboutsia” value (colonic microbiota; [4]) was 0.11%, the “Mean relative abundance (%) Ruminococcaceae UCG-014” value (colonic microbiota; [4]) was 1.19% and the “Mean relative abundance (%) uncultured genus of Peptostreptococcaceae” value (colonic microbiota; [4]) was 15.49%. For the same molecule, the “Mean relative abundance of Peptostreptococcaceae” value (colonic microbiota; [4]) was 15.73%, the “L2FC of LinDA-normalized abundance of Peptostreptococcaceae” value (colonic microbiota; 0.5 vs 0 g berberine/kg feed) was -0.94 and the “L2 FC Family_ Peptostreptococcaceae, 1 vs 0” value (colonic microbiota; [5]) was -6.62. The “L2 FC GCA-900066575, 1 vs 0” value (colonic microbiota; [5]) was 2.34, the “L2 FC Lachnospiraceae UCG-010, 1 vs 0” value (colonic microbiota; [5]) was 0.99 and the “L2 FC Romboutsia, 1 vs 0” value (colonic microbiota; [5]) was -6.45. The “L2 FC Ruminococcaceae UCG-014, 1 vs 0” value (colonic microbiota; [5]) was 3.32, the “L2 FC uncultured genus of Peptostreptococcaceae, 1 vs 0” value (colonic microbiota; [5]) was -9.04 and the “Mean relative abundance (%) Family_ Peptostreptococcaceae” value (colonic microbiota; 1 g berberine/kg feed, 21 days) was 0.01%. The “Mean relative abundance (%) GCA-900066575” value (colonic microbiota; 1 g berberine/kg feed, 21 days) was 0.65%, the “Mean relative abundance (%) Lachnospiraceae UCG-010” value (colonic microbiota; 1 g berberine/kg feed, 21 days) was 0.06% and the “Mean relative abundance (%) Romboutsia” value (colonic microbiota; 1 g berberine/kg feed, 21 days) was 0.00%. For the same molecule, the “Mean relative abundance (%) Ruminococcaceae UCG-014” value (colonic microbiota; 1 g berberine/kg feed, 21 days) was 1.02%, the “Mean relative abundance (%) uncultured genus of Peptostreptococcaceae” value (colonic microbiota; 1 g berberine/kg feed, 21 days) was 0.50% and the “Mean relative abundance of Peptostreptococcaceae” value (colonic microbiota; 1 g berberine/kg feed, 21 days) was 0.51%. For the same molecule, the “L2FC of LinDA-normalized abundance of Peptostreptococcaceae” value (colonic microbiota; 1 vs 0 g berberine/kg feed) was -8.67, the “Observed number of OTUs” value (colonic microbiota; lowest concentration (0.1 g/kg feed), p = 0.026) was “significantly increased” and the “Cytotoxicity (Neutral Red Uptake)” value (Caco-2 cells) was “considered safe”. For the same molecule, the “L2 FC Butyricicoccus, 0.1 vs 0” value (jejunal microbiota; [1]) was -2.02, the “L2 FC Curtobacterium, 0.1 vs 0” value (jejunal microbiota; [1]) was -2.73 and the “L2 FC Gordonibacter, 0.1 vs 0” value (jejunal microbiota; [1]) was -2.71. The “Mean relative abundance (%) Butyricicoccus” value (jejunal microbiota; [2]) was 0.22%, the “Mean relative abundance (%) Curtobacterium” value (jejunal microbiota; [2]) was 0.01% and the “Mean relative abundance (%) Gordonibacter” value (jejunal microbiota; [2]) was 0.01%. For the same molecule, the “Mean relative abundance of Bacillaceae” value (jejunal microbiota; [2]) was 0.03%, the “Mean relative abundance of Burkholderiaceae” value (jejunal microbiota; [2]) was 6.47% and the “Mean relative abundance of Peptostreptococcaceae” value (jejunal microbiota; [2]) was 6.37%. For the same molecule, the “Mean relative abundance of Pseudomonadaceae” value (jejunal microbiota; [2]) was 1.71%, the “Mean relative abundance of Ruminococcaceae” value (jejunal microbiota; [2]) was 3.73% and the “Mean relative abundance of uncultured bacterium family (Tenericutes, Mollicutes RF39)” value (jejunal microbiota; [2]) was 0.01%. For the same molecule, the “L2FC of LinDA-normalized abundance of Bacillaceae” value (jejunal microbiota; 0.1 vs 0 g berberine/kg feed) was 3.45, the “L2FC of LinDA-normalized abundance of Burkholderiaceae” value (jejunal microbiota; 0.1 vs 0 g berberine/kg feed) was 3.82 and the “L2FC of LinDA-normalized abundance of Peptostreptococcaceae” value (jejunal microbiota; 0.1 vs 0 g berberine/kg feed) was 3.90. The “L2FC of LinDA-normalized abundance of Pseudomonadaceae” value (jejunal microbiota; 0.1 vs 0 g berberine/kg feed) was 3.67, the “L2FC of LinDA-normalized abundance of Ruminococcaceae” value (jejunal microbiota; 0.1 vs 0 g berberine/kg feed) was 2.19 and the “L2FC of LinDA-normalized abundance of uncultured bacterium family (Tenericutes, Mollicutes RF39)” value (jejunal microbiota; 0.1 vs 0 g berberine/kg feed) was 2.35. The “L2 FC Butyricicoccus, 0.5 vs 0” value (jejunal microbiota; [3]) was -0.78, the “L2 FC Curtobacterium, 0.5 vs 0” value (jejunal microbiota; [3]) was -1.13 and the “L2 FC Gordonibacter, 0.5 vs 0” value (jejunal microbiota; [3]) was -2.33. The “Mean relative abundance (%) Butyricicoccus” value (jejunal microbiota; [4]) was 0.34%, the “Mean relative abundance (%) Curtobacterium” value (jejunal microbiota; [4]) was 0.03% and the “Mean relative abundance (%) Gordonibacter” value (jejunal microbiota; [4]) was 0.00%.
